This is an account of results in patent US8470834B2, “AZO-substituted pyridine and pyrimidine derivatives and their use in treating viral infections” (Merck Sharp & Dohme Corp., priority 2008, dated 2013).

One series deals with HCV replicon cells. Put plainly: Cell-based HCV Replicon Assay. To be noted: Hepatitis C virus, 72 h; replicon RNA level by real time PCR (Taqman), day 3; EC90 = concentration to achieve ΔCT=3.2 over baseline. How it is done: Assays Cell-based HCV Replicon Assay
To measure cell-based anti-HCV activity of the compounds of the present invention, replicon cells were seeded at 5000 cells/well in 96-well collagen I-coated Nunc plates in the presence of the compound of the invention. […] The final concentration of DMSO was 0.5%, fetal bovine serum was 10%, in the assay media. […] The replicon RNA level was measured using real time PCR (Taqman assay). The amplicon was located in 5B. The
GAPDH RNA was used as endogenous control and was amplified in the same reaction as NS5B (multiplex PCR) using primers and VIC-labeled probe recommended by the manufacturer (PE Applied Biosystem). The real-time RT-PCR reactions were run on ABI PRISM 7900HT Sequence Detection System using the following program: 48° C. for 30 min, 95° C. for 10 min, 40 cycles of 95° C. for 15 sec, 60° C. for 1 min. The ΔCT values (CT5B-CTGAPDH) were plotted against the concentration of test compound and fitted to the sigmoid dose-response model using GraphPad PRISM software. EC50 was defined as the concentration of inhibitor necessary to achieve ΔCT=1 over the projected baseline; EC90 the concentration necessary to achieve ΔCT=3.2 over the baseline. Alternatively, to quantitate the absolute amount of replicon RNA, a standard curve was established by including serially diluted T7 transcripts of replicon RNA in the Taqman assay. […]

As for `Nc1nc(Cl)c(/N=N/c2ccc(Cl)cc2)c(N[C@H]2C[C@@H](CO)[C@H](O)[C@@H]2O)n1` [Compound 11, (1S,2R,3S,5S)-3-[[2-amino-6-chloro-5-[(4-chlorophenyl)azo]-4-pyrimidinyl]amino]-5-(hydroxymethyl)-1,2-cyclopentanediol], the melting point is 238 to 241 °C (dec.). As to `Nc1nc(Cl)c(/N=N/c2ccc(Cl)cc2)c(N[C@@H]2C[C@H](CO)[C@@H](O)C2)n1` (racemic) [Compound 8, Cyclopentanemethanol, 4-[[2-amino-6-chloro-5-[(4-chlorophenyl)azo]-4-pyrimidinyl]amino]-2-hydroxy-, cis, trans—(+−)—], the EC90 in the series with HCV replicon cells was greater than 5 µM.
